For data set [1], the target named is mushroom tyrosinase (Agaricus bisporus, UniProt C7FF04). The data set can be described thus: Mushroom tyrosinase inhibitory assay (o-diphenolase activity, L-DOPA as substrate).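 Further: enzyme and test sample preincubated 10 min at 25 °C in pH 6.8 phosphate buffer, 50% DMSO vehicle as control, enzyme-free mixture as blank.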 The data set is classed as biochemical.
In data set [2] the target is mushroom tyrosinase. The settings on record: read-out: monophenolase inhibition of mushroom tyrosinase IC50; cited from earlier work.
A further data set has as its target T1, murine tyrosinase (Mus musculus, UniProt P11344).
T1 construct: The cells were lysed by vortex and incubated at 4 °C for 1 h to solubilize the tyrosinase enzyme; endogenous in cells; host or cells: B16-F10 melanoma cells (Triton X-100 lysate, dialyzed)
T1 sequence (P11344 19-533): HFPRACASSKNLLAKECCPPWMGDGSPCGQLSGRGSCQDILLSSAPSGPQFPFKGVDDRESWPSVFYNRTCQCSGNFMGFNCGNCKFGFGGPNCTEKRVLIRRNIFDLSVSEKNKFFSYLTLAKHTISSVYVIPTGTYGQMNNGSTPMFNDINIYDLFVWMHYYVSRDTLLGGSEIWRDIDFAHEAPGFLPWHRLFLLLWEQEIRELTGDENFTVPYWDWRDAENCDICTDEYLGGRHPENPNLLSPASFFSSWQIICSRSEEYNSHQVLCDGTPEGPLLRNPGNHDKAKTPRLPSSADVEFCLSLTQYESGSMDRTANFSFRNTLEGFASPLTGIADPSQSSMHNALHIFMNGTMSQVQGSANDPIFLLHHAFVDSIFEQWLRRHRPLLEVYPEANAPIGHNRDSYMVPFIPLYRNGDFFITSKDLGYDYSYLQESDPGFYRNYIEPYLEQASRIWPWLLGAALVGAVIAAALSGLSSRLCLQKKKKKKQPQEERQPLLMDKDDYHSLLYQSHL
The data set can be described thus: Murine tyrosinase inhibitory assay (o-diphenolase activity, crude enzyme from B16-F10 melanoma cells).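 Further: crude tyrosinase taken from lysed, dialyzed B16-F10 cell extract, with the inhibition reaction incubated for 2 h at 37 °C.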 It counts as biochemical. The settings on record: 200 μM; L-DOPA substrate; read-out: Murine Tyrosinase Inhibition, % (at 200 μM), symbol.

Data set [3] can be described thus: Cell viability assay (PrestoBlue resazurin).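 Further: mouse B16-F10 melanoma cells exposed to test samples for 72 h, with viability read as fluorescence of resorufin formed when living cells reduce PrestoBlue resazurin.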 It counts as cell-based, Mus musculus (mouse). The following applies: mouse, B16-F10 melanoma cells, 72 h, relative to control, read-out: % Cell Viability. A general note: Resazurin is reduced to fluorescent resorufin, in cell work by metabolically active cells.
The test system of a further data set is B16-F10 melanoma cells. The data set can be described thus: Total melanin content assay. The data set is classed as cell-based, Mus musculus (mouse). The settings on record: Mus musculus, B16-F10, 72 h, relative to control, read-out: % Melanin Content. As to the method: Mus musculus (mouse) melanoma cell line, B16-F10 (ATCC® Number: CRL-6475™, Manassas, VA, USA), was cultured in complete Dulbecco′s Modified Eagle′s Medium (DMEM, phenol red-free medium) containing 10% fetal bovine serum, 25 mM glucose, 4 mM L-glutamine, 1 mM sodium pyruvate, 10 μg/mL penicillin, and 10 μg/mL streptomycin, at 37 °C, with 5% carbon dioxide (CO2) in a humidified atmosphere.
The total melanin content, produced both extracellularly and intracellularly, was determined as follows: B16-F10 cells were seeded onto a 24-well plate at a concentration of 50,000 cells/0.5 mL/well and were incubated for 24 h, followed by treatment with either the test compounds or the control (0.5% DMSO), and then incubated for 72 h. For extraction, the total produced melanin and 0.5 mL of 2 N NaOH containing 20% DMSO were added directly to the cell culture medium, mixed by pipetting and then incubated at room temperature for 1 h. The lysed cell extract was centrifuged at 13,000× g for 5 min. Finally, the supernatant was transferred to a 96-well plate and the relative melanin content was detected at 405 nm using a micro plate reader. Kojic acid and oxyresveratrol were used as positive controls.

Data set [4] has as its system murine melan-a melanocytes. Also on record: method as in PMID 19182387. The settings on record: cited from earlier work.

A word on the inhibition: it is the percentage by which the read-out fell short of the control. As usually defined, the IC50 is the concentration that gives 50% inhibition. Usually viability stands for a read-out of living cells in per cent, often relative to untreated cells.

mushroom tyrosinase (Agaricus bisporus, UniProt C7FF04), sequence (G1K3P4 entry or part of it): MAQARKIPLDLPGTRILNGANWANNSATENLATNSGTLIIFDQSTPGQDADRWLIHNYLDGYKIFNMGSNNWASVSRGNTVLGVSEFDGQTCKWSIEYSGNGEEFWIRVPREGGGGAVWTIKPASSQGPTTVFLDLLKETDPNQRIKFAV
mushroom tyrosinase (Agaricus bisporus, UniProt C7FF04), sequence (C7FF04 2-392): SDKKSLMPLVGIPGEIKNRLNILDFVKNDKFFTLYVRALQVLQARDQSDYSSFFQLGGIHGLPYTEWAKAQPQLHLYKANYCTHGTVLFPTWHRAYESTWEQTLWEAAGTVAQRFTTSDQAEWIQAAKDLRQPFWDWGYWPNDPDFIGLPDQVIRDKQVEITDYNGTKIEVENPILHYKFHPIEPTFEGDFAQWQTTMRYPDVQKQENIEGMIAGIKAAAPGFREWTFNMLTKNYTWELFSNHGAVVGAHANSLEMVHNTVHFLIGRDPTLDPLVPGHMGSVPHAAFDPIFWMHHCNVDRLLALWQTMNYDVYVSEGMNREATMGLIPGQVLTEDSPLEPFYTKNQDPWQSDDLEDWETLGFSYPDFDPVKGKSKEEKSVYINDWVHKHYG

As to `COc1ccc(-c2coc3cc(O)ccc3c2=O)cc1O` [Compound 2, Calycosin], the “inhibitory activity on mushroom tyrosinase (in words)” value against mushroom tyrosinase [1] (o-diphenolase, L-DOPA substrate) is given as “did not show inhibitory activity”. The inhibition at 300 µM at mushroom tyrosinase [1] (read-out: Mushroom Tyrosinase Inhibition % Inhibition (at 300 μM)) amounted to 0%. In addition, the half-inhibitory concentration (IC50) on mushroom tyrosinase [2] was 38.4 µM. In addition, at murine tyrosinase, the inhibition at 200 µM is under 0%. Further, the viability at 72 h, 15 µM in data set [3] (15 μM) was determined as 99.1 ± 9.2%. Besides, the viability at 72 h, 30 µM in data set [3] (30 μM) worked out at 101 ± 1.9%. Further, the activity at 15 µM in the data set with B16-F10 melanoma cells (15 μM) was 143 ± 8.2%. For the same compound, the activity at 30 µM in the data set on B16-F10 melanoma cells (30 μM) amounted to 197 ± 6.4%. Further, the “effect on melanin biosynthesis (in words)” value in data set [4] is listed as “reduced melanin biosynthesis”.

These data come from article PMC6100075, “Correlation between the Potency of Flavonoids on Mushroom Tyrosinase Inhibitory Activity and Melanin Synthesis in Melanocytes” (Molecules : A Journal of Synthetic Chemistry and Natural …, 2018).
